From patent US9573913B2, “Cathepsin cysteine protease inhibitors” (Merck Sharp & Dohme Corp., priority 2013, dated 2017)

Key:
human cathepsin K = human cathepsin K (UniProt P43236); assay: Cathepsin K Assay (hrbCat K); type: biochemical; conditions: Z-Leu-Arg-AMC substrate, pH 5.5, 15 min preincubation; read-out: hrbCat K (IP (nM))
Summary of the method: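 Human cathepsin K (0.4 nM) was preincubated 15 min at room temperature with compound in 50 mM MES pH 5.5, 2.5 mM EDTA, 2.5 mM DTT and 10% DMSO. Inhibition was fitted to a dose-response model.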

human cathepsin F = target: T1, human cathepsin F (Homo sapiens, UniProt Q9UBX1); assay: Cathepsin F assay (hCat F); type: biochemical; conditions: Z-Phe-Arg-AMC substrate, pH 5.5, 15 min preincubation; read-out: hCat F (IP (nM))
T1 sequence (Q9UBX1 271-484): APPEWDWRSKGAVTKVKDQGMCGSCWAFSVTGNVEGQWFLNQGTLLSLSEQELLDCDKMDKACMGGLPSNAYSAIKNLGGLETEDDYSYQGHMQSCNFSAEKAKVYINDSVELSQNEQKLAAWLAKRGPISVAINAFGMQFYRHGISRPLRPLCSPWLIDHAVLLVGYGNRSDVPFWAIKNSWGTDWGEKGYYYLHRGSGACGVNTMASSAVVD
Summary of the method: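 Enzyme (10 nM) was preincubated 15 min at room temperature with compounds (1/3 DMSO dilution series, 500–0.025 μM) in 50 mM MES pH 5.5, 2.5 mM EDTA, 2.5 mM DTT, 10% DMSO. Z-Phe-Arg-AMC (8 μM) was added and AMC fluorescence (Ex 360/Em 460 nm) followed for 20 min. % inhibition was fitted to dose-response curves.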

| IC50 (human cathepsin K) [nM] | IC50 (human cathepsin F) [nM] | Structure (SMILES) |
| --- | --- | --- |
| 2.1 | 1000 | N#CC1(NC(=O)[C@@H]2CCCC[C@H]2c2nc(C3(c4ccccc4)CC3)sc2-c2ccc(N3CCS(=O)(=O)CC3)cc2)CC1 [Example 175, (1R,2R)-N-(1-cyanocyclopropyl)-2-(5-(4-(1,1-dioxidothiomorpho-lino)phenyl)-2-(1-phenylcyclopropyl)thiazol-4-yl)cyclohexane-carboxamide] |
| 3.2 | 3330 | N#CC1(NC(=O)[C@@H]2C[C@@H](F)CC[C@H]2c2nc(-c3ccc(F)cc3)sc2-c2ccc(N3CCS(=N)(=O)CC3)cc2)CC1 [Example 176, (1R,2R,5S)-N-(1-cyanocyclopropyl)-5-fluoro-2-(2-(4-fluorophenyl)-5-(4-(1-imino-1-oxidothiomorpholino)phenyl)thiazol-4-yl)cyclohexane-carboxamide] |
| 3.5 | 3330 | CN=S1(=O)CCN(c2ccc(-c3sc(-c4ccc(F)cc4)nc3[C@@H]3CC[C@H](F)C[C@H]3C(=O)NC3(C#N)CC3)cc2)CC1 [Example 177, (1R,2R,5S)-N-(1-cyanocyclopropyl)-5-fluoro-2-(2-(4-fluorophenyl)-5-(4-(1-(methylimino)-1-oxidothiomorpholino)phenyl)thiazol-4-yl)cyclohexane-carboxamide] |
| 41.2 | 1000 | N#CC1(NC(=O)[C@@H]2CCCC[C@H]2c2nc(NC3CCCCC3)sc2-c2ccc(N3CCS(=O)(=O)CC3)cc2)CC1 [Example 178, (1R,2R)-N-(1-cyanocyclopropyl)-2-(2-(cyclohexylamino)-5-(4-(1,1-dioxidothiomorpho-lino)phenyl)thiazol-4-yl)cyclohexane-carboxamide] |
| 34.6 | 3740 | N#CC1(NC(=O)[C@@H]2CCCC[C@H]2c2nc(Nc3ccccc3)sc2-c2ccc(N3CCS(=O)(=O)CC3)cc2)CC1 [Example 179, (1R,2R)-N-(1-cyanocyclopropyl)-2-(5-(4-(1,1-dioxidothiomorpho-lino)phenyl)-2-(phenylamino)thia-zol-4-yl)cyclohexane-carboxamide] |
| 43.3 | 1000 | N#CC1(NC(=O)[C@@H]2CCCC[C@H]2c2nc(Nc3ccc(F)cc3)sc2-c2ccc(N3CCS(=O)(=O)CC3)cc2)CC1 [Example 180, (1R,2R)-N-(1-cyanocyclopropyl)-2-(5-(4-(1,1-dioxidothiomorpho-lino)phenyl)-2-((4-fluorophenyl)amino)thiazol-4-yl)cyclohexane-carboxamide] |
| 31.9 | 3490 | N#CC1(NC(=O)[C@@H]2CCCC[C@H]2c2nc(Nc3ccc(F)cc3F)sc2-c2ccc(N3CCS(=O)(=O)CC3)cc2)CC1 [Example 181, (1R,2R)-N-(1-cyanocyclopropyl)-2-(2-((2,4-difluorophenyl)amino)-5-(4-(1,1-dioxidothiomorpho-lino)phenyl)thiazol-4-yl)cyclohexane-carboxamide] |
| 2.72 | 3330 | N#CN=S1(=O)CCN(c2ccc(-c3sc(-c4ccc(F)cc4)nc3[C@@H]3CCCC[C@H]3C(=O)NC3(C#N)CC3)cc2)CC1 [Example 182, (1R,2R)-N-(1-cyanocyclopropyl)-2-(5-(4-(1-(cyanoimino)-1-oxidothiomorpholino)phenyl)-2-(4-fluorophenyl)thiazol-4-yl)cyclohexane-carboxamide] |
| 5.7 | 810 | N#CC1(NC(=O)[C@@H]2CCCC[C@H]2c2nc(C(F)(F)c3ccccc3)sc2-c2ccc(N3CCS(=O)(=O)CC3)cc2)CC1 [Example 183, (1R,2R)-N-(1-cyanocyclopropyl)-2-(2-(difluoro(phenyl)methyl)-5-(4-(1,1-dioxidothiomorpho-lino)phenyl)thiazol-4-yl)cyclohexane-carboxamide] |
| 5.2 | 1580 | N#CC1(NC(=O)[C@@H]2CCCC[C@H]2c2nc(C3(c4ccc(F)cc4)CC3)sc2-c2ccc(N3CCS(=O)(=O)CC3)cc2)CC1 [Example 184, (1R,2R)-N-(1-cyanocyclopropyl)-2-(5-(4-(1,1-dioxidothiomorpho-lino)phenyl)-2-(1-(4-fluorophenyl)cyclo-propyl)thiazol-4-yl)cyclohexane-carboxamide] |
| 5.1 | 788 | N#CC1(NC(=O)[C@@H]2CCCC[C@H]2c2nc(Oc3ccc(F)cc3)sc2-c2ccc(N3CCS(=O)(=O)CC3)cc2)CC1 [Example 189, (1R,2R)-N-(1-cyanocyclopropyl)-2-(5-(4-(1,1-dioxidothiomorpho-lino)phenyl)-2-(4-fluorophenoxy)thia-zol-4-yl)cyclohexane-carboxamide] |
| 13.2 | 7410 | N#CC1(NC(=O)[C@@H]2CCCC[C@H]2c2nc(N)sc2-c2ccc(N3CCS(=O)(=O)CC3)cc2)CC1 [Example 190, (1R,2R)-2-(2-amino-5-(4-(1,1-dioxidothiomorpho-lino)phenyl)thiazol-4-yl)-N-(1-cyanocyclopropyl) cyclohexanecarbox-amide] |
| 1.4 | 1940 | Cc1ccc(-c2nc([C@@H]3CC[C@H](F)C[C@H]3C(=O)N[C@@H](C)C#N)c(-c3ccc(N4CCS(=O)(=O)CC4)cc3)s2)nn1 [Example 195, (1R,2R,5S)-N-((S)-1-cyanoethyl)-2-(5-(4-(1,1-dioxidothiomorpho-lino)phenyl)-2-(6-methylpyridazin-3-yl)thiazol-4-yl)-5-fluorocyclohexane-carboxamide] |
| 2.4 | 2020 | Cc1ccc(-c2nc([C@@H]3CC[C@H](F)C[C@H]3C(=O)NC3(C#N)CC3)c(-c3ccc(N4CCS(=O)(=O)CC4)cc3)s2)nn1 [Example 196, (1R,2R,5S)-N-(1-cyanocyclopropyl)-2-(5-(4-(1,1-dioxidothiomorpho-lino)phenyl)-2-(6-methylpyridazin-3-yl)thiazol-4-yl)-5-fluorocyclohexane-carboxamide] |
| 512 | ≥ 10000 | N#CC1(NC(=O)[C@@H]2C[C@@H](F)CC[C@H]2c2nc(-c3ccc(C(F)(F)F)nn3)sc2-c2ccc(N3CCS(=O)(=O)CC3)cc2)CC1 [Example 197, (1R,2R,5S)-N-(1-cyanocyclopropyl)-2-(5-(4-(1,1-dioxidothiomorpho-lino)phenyl)-2-(6-(trifluoromethyl)pyridazin-3-yl)thiazol-4-yl)-5-fluorocyclohexane-carboxamide] |
| 4.2 | 1020 | N#CC1(NC(=O)[C@@H]2CCCC[C@H]2c2nc(Oc3ccc(F)cc3F)sc2-c2ccc(N3CCS(=O)(=O)CC3)cc2)CC1 [Example 198, (1R,2R)-N-(1-cyanocyclopropyl)-2-(2-(2,4-difluorophenoxy)-5-(4-(1,1-dioxidothiomorpho-lino)phenyl)thiazol-4-yl)cyclohexane-carboxamide] |
| 25.8 | 846 | CC(C)S(=O)(=O)c1ccc(-c2sc(-c3cncc(F)c3)nc2[C@@H]2CCCC[C@H]2C(=O)NC2(C#N)CC2)cc1 [Example 199, (1R,2R)-N-(1-cyanocyclopropyl)-2-(2-(5-fluoropyridin-3-yl)-5-(4-(isopropylsulfonyl)phenyl)thiazol-4-yl)cyclohexane-carboxamide] |
| 116 | ≥ 10000 | N#CC1(NC(=O)[C@@H]2CCCC[C@H]2c2nc(NS(=O)(=O)c3ccccc3)sc2-c2ccc(N3CCS(=O)(=O)CC3)cc2)CC1 [Example 200, (1R,2R)-N-(1-cyanocyclopropyl)-2-(5-(4-(1,1-dioxidothiomorpho-lino)phenyl)-2-(phenylsulfonamido)thiazol-4-yl)cyclohexane-carboxamide] |
| 1.2 | 712 | CN(c1nc([C@@H]2CCCC[C@H]2C(=O)NC2(C#N)CC2)c(-c2ccc(N3CCS(=O)(=O)CC3)cc2)s1)S(=O)(=O)c1ccccc1 [Example 201, (1R,2R)-N-(1-cyanocyclopropyl)-2-(5-(4-(1,1-dioxidothiomorpho-lino)phenyl)-2-(N-methylphenylsulfon-amido)thiazol-4-yl)cyclohexane-carboxamide] |
| 88.2 | 3330 | N#CC1(NC(=O)[C@@H]2CCC(Cl)(Cl)C[C@H]2c2nc(-c3ccc(F)cn3)sc2-c2ccc(N3CCS(=O)(=O)CC3)cc2)CC1 [Example 204, (1R,2R)-4,4-dichloro-N-(1-cyanocyclopropyl)-2-(5-(4-(1,1-dioxidothiomorpho-lino)phenyl)-2-(5-fluoropyridin-2-yl)thiazol-4-yl)cyclohexane-carboxamide] |
| 6.4 | ≥ 10000 | Cc1nc([C@@H]2CC[C@H](F)C[C@H]2C(=O)NC2(C#N)CC2)c(-c2ccc(N3CCS(=O)(=O)CC3)cc2)s1 [Example 205, (1R,2R,5S)-N-(1-cyanocyclopropyl)-2-(5-(4-(1,1-dioxidothiomorpho-lino)phenyl)-2-methylthiazol-4-yl)-5-fluorocyclohexane-carboxamide] |
| 5 | 9010 | Cc1nc([C@@H]2CC[C@H](F)C[C@H]2C(=O)N[C@@H](C)C#N)c(-c2ccc(N3CCS(=O)(=O)CC3)cc2)s1 [Example 206, (1R,2R,5S)-N-((S)-1-cyanoethyl)-2-(5-(4-(1,1-dioxidothiomorpho-lino)phenyl)-2-methylthiazol-4-yl)-5-fluorocyclohexane-carboxamide] |
